Measured values reported in PMC9826610 (Journal of medicinal chemistry, 2022).
≈ marks a conversion by molar mass, not a printed value. Like-named read-outs stand apart in the source and are kept apart here.

Assays:
[1] = tested on: methicillin-resistant S. aureus (FPR3757); assay: MIC against methicillin-resistant S. aureus; assay type: cell-based, Staphylococcus aureus; settings: for MIC: complete inhibition of observable growth, Mueller–Hinton broth
[2] = tested on: S. aureus (strain USA300); assay: Transmission electron microscopy of treated MRSA; assay type: cell-based; settings: 1× MIC
[3] = tested on: MRSA; assay: MRSA MIC in the presence of serum; assay type: cell-based; settings: Staphylococcus aureus
[4] = tested on: sheep erythrocytes; settings: washed sheep erythrocytes; at 32 μg/mL; compared to Triton X-100 (100% lysis)
[5] = tested on: C. albicans; assay: Antimicrobial susceptibility panel: MIC against C. albicans; assay type: cell-based; settings: Candida albicans, SC5314
[6] = Single-dose in vivo pharmacokinetics; settings: mice
[7] = Kinetic aqueous solubility by LC-MS/MS; settings: pH 7.4
[8] = tested on: S. aureus (strain COL); assay: Fluorescence microscopy of membrane, cell wall and DNA in MRSA; assay type: cell-based; settings: 1× MIC, 30 min

Row | SMILES | MIC ([1]; Staphylococcus aureus) [µg/mL] | other results
1 | O=c1cc(C(F)(F)F)[nH]c2cc(C(F)(F)F)ccc12 [Compound 2, 2,7-Bis-(trifluoromethyl)quinolin-4-ol] | 4 to 8 (≈ 14.2 to 28.5 µM) | 
2 | Oc1cc(C(F)(F)F)nc2cc(OC(F)(F)F)ccc12 [Compound 3] | 4 to 8 (≈ 13.5 to 26.9 µM) | 
3 | Oc1cc(C(F)(F)F)nc2c(C(F)(F)F)cccc12 [Compound 4] | 2 to 4 (≈ 7.11 to 14.2 µM) | 
4 | CCc1ccc2c(O)cc(C(F)(F)F)nc2c1 [Compound 8] | 320 to 640 (≈ 1330 to 2650 µM) | 
5 | COc1ccc2c(O)cc(C(F)(F)F)nc2c1 [Compound 9] | 320 to 640 (≈ 1320 to 2630 µM) | 
6 | CSc1ccc2c(O)cc(C(F)(F)F)nc2c1 [Compound 10] | 320 to 640 (≈ 1230 to 2470 µM) | 
7 | FC(F)(F)c1ccc2c(Nc3cccc(Cl)c3)cc(C(F)(F)F)nc2c1 [Compound 16] | 0.125 to 0.25 (≈ 0.32 to 0.64 µM) | 
8 | FC(F)(F)c1ccc2c(Nc3ccc(Cl)cc3)cc(C(F)(F)F)nc2c1 [Compound 17] | 0.125 to 0.25 (≈ 0.32 to 0.64 µM) | 
9 | Fc1cccc(Nc2cc(C(F)(F)F)nc3cc(C(F)(F)F)ccc23)c1 [Compound 18] | 4 to 16 (≈ 10.7 to 42.8 µM) | 
10 | Fc1ccc(Nc2cc(C(F)(F)F)nc3cc(C(F)(F)F)ccc23)cc1F [Compound 21] | 0.125 to 0.25 (≈ 0.319 to 0.637 µM) | 
11 | CSc1cccc(Nc2cc(C(F)(F)F)nc3cc(C(F)(F)F)ccc23)c1 [Compound 24] | 0.25 to 0.5 (≈ 0.621 to 1.24 µM) | 
12 | FC(F)(F)c1ccc(Nc2cc(C(F)(F)F)nc3cc(C(F)(F)F)ccc23)nc1 [Compound 31, 2,7-Bis(trifluoromethyl)-4-[5-(trifluoromethyl)pyridin-2-yl-amino]quinoline] |  | cell morphology by TEM [2]: mesosome-like membrane inclusions; MIC ([3]; read-out: MIC + 10% FBS): 4 to 8 µg/mL
13 | FC(F)(F)Oc1ccc2c(Nc3ccc(Cl)c(Cl)c3)cc(C(F)(F)F)nc2c1 [Compound 32] | 0.5 to 1 (≈ 1.13 to 2.27 µM) | 
14 | FC(F)(F)Oc1cccc(Nc2cc(C(F)(F)F)nc3cc(OC(F)(F)F)ccc23)c1 [Compound 33] | 0.5 to 1 (≈ 1.1 to 2.19 µM) | 
15 | FC(F)(F)Oc1ccc2c(Nc3ccc(C(F)(F)F)cn3)cc(C(F)(F)F)nc2c1 [Compound 34] | 0.5 to 1 (≈ 1.13 to 2.27 µM) | 
16 | FC(F)(F)c1ccc2c(Nc3cc(Cl)ccn3)cc(C(F)(F)F)nc2c1 [Compound 48] |  | loss of activity (MIC) relative to 31 [1]: 8 fold
17 | FC(F)(F)c1ccc2c(Nc3ccc(C(F)(F)F)nc3)cc(C(F)(F)F)nc2c1 [Compound 49] |  | MIC [1]: completely abolished activity
18 | FC(F)(F)c1ccc2c(Nc3nccs3)cc(C(F)(F)F)nc2c1 [Compound 55] | 1 to 2 (≈ 2.75 to 5.51 µM) | 
19 | Fc1ccc2c(Nc3ccc(Cl)c(Cl)c3)cc(C(F)(F)F)nc2c1 [Compound 74] | 0.5 to 2 (≈ 1.33 to 5.33 µM) | 
20 | Fc1ccc2c(Nc3ccc(C(F)(F)F)cn3)cc(C(F)(F)F)nc2c1 [Compound 76] | 0.5 to 2 (≈ 1.33 to 5.33 µM) | 
21 | Fc1ccc2nc(C(F)(F)F)cc(Nc3ccc(C(F)(F)F)cn3)c2c1F [Compound 77] | 16 to 32 (≈ 40.7 to 81.4 µM) | 
22 | Fc1cc2nc(C(F)(F)F)cc(Nc3ccc(C(F)(F)F)cn3)c2cc1F [Compound 78] |  | hemolysis [4]: hemolysis
23 | Fc1ccc(Nc2nc(C(F)(F)F)nc3nc(C(F)(F)F)ccc23)cc1F [Compound 94, N-(3,4-Difluorophenyl)-2,7-bis(trifluoromethyl)pyrido[2,3-d]-pyrimidin-4-amine] | ≥ 32 | 
24 | FC(F)(F)c1ccc(Nc2cc(N3CCNCC3)nc3cc(C(F)(F)F)ccc23)nc1 [Compound 105, 2-(Piperazin-1-yl)-7-(trifluoromethyl)-4-{[5-(trifluoro-methyl)-pyridin-2-yl]amino}quinoline] | 0.5 to 1 (≈ 1.13 to 2.27 µM) | MIC [1]: 0.5 to 1 µg/mL
25 | FC(F)(F)c1ccc(Nc2cc(N3CCNCC3)c3ccc(C(F)(F)F)cc3n2)nc1 [Compound 106] | 4 to 8 (≈ 9.06 to 18.1 µM) | 
26 | FC(F)(F)c1ccc(Nc2cc(N3CCOCC3)c3ccc(C(F)(F)F)cc3n2)nc1 [Compound 108] | 4 to 8 (≈ 9.04 to 18.1 µM) | 
27 | O=c1cc(C(F)(F)F)[nH]c2cc(C(F)(F)F)cc(Nc3ccc(C(F)(F)F)cn3)c12 [Compound 111, 5-[(5-Trifluoromethylpyridin-2-yl)amino]-2,7-bis-(trifluoromethyl)quinolin-4(1H)-one] |  | MIC [5]: 256 µg/mL (≈ 580 µM); time total plasma concentrations stay above the MIC (<0.0625 μg/mL) ([6]; following i.v. dosing at 0.5 mg/kg): ~9 h; time total plasma concentrations stay above the MIC (<0.0625 μg/mL) ([6]; following oral dosing at 10 mg/kg): ~9 h; hemolysis [4]: devoid of hemolytic activity; cell morphology by TEM [2]: mesosome-like membrane inclusions; solubility at 6 h [7]: 2.4 ± 0.4 ng/mL (≈ 0.00544 µM); MIC ([3]; read-out: MIC + 10% human serum): 4 to 8 µg/mL; MIC ([3]; read-out: MIC + 10% mouse serum): 4 to 8 µg/mL; MIC ([3]; read-out: MIC + 30% FBS): 4 to 8 µg/mL
28 | O=c1cc(C(F)(F)F)[nH]c2cc(C(F)(F)F)cc(Nc3ccc(F)cn3)c12 [Compound 114] | 0.125 to 2 (≈ 0.319 to 5.11 µM) | 
29 | O=c1cc(C(F)(F)F)[nH]c2cc(C(F)(F)F)cc(N[C@H]3CC[C@H](C(F)(F)F)CC3)c12 [Compound 120] |  | FM 4–64 membrane staining by fluorescence microscopy [8]: membrane defects; cell morphology by TEM [2]: mesosome-like membrane inclusions
30 | O=c1cc(C(F)(F)F)[nH]c2cc(F)cc(Nc3ccc(C(F)(F)F)cn3)c12 [Compound 122] |  | FM 4–64 membrane staining by fluorescence microscopy [8]: membrane defects
